The results in this text go back to patent US20080274090A1, “REVERSAL OF INSULIN-DEPENDENT DIABETES BY ISLET-PRODUCING STEM CELLS, ISLET PROGENITOR CELLS AND ISLET-LIKE STRUCTURES” (UNIVERSITY OF FLORIDA RESEARCH FOUNDATION, INC., priority 2000, published 2008).

Assay [1] has as its system IdIs derived from NOD/Uf pancreatic IPSCs. In words: Insulin content and secretion of cultured IdIs upon glucose stimulation (insulin ELISA). The conditions noted are these: for insulin release from IdIs by secretagogues: 10 mM arginine or 1 nM GLP-1 with 17.5 mM glucose, final 3 hours, lesser degree than nicotinamide. The format is cell-based, mouse. Background: In an ELISA, binding on a coated surface is turned into a signal by an enzyme label.
Method: To determine insulin secretion, 300 IdIs derived from NOD/Uf pancreatic IPSCs were cultured in vitro for 5 days in EHAA medium containing either 0.5% NMS or prediabetic NOD mouse serum with or without nicotinamide (1-10 mM). At the end of the culture period, cells were washed twice in Krebs ringer buffer (KRB) and stimulated with 17.5 mM glucose in KRB for 3 hours.
Three hundred IdIs (from culture flasks containing EHAA-0.5% NMS medium) were seeded in 24 well plates in 2 ml of EHAA medium containing 0.5% of NMS with or without nicotinamide (1-10 mM) for 5 days at 37° C. (5% CO2). For secretagogues, IdIs were cultured in EHAA-0.5% NMS medium for 5 days. Three hours prior to the end of the incubation period, medium was removed and IdIs gently washed twice with KRB. To stimulate insulin secretion, 17.5 mM glucose was added to wells in 1 ml of KRB, and incubated at 37° C. for 3 hrs. Following incubation, culture supernatants were stored at −70° C. until use. The IdIs in each well were then subjected to 1 ml of ice-cold acid-ethanol extraction overnight at 4° C., and cell-free extracts were neutralized with Tris base (400 mM final concentration) prior to storing at −70° C. until use. To test the effect of secretagogues, 10 mM arginine and 1 nM GLP-1 (Sigma Chemicals, St Louis, Mo.) were used for the final 3 hours incubation in KRB. The insulin in the supernatants and in the extract were determined using an insulin ELISA kit (Crystal Chemical Inc., Chicago, Ill.), with rat insulin standard for quantitation (supplied in the kit). Comparisons between groups were done using the one tailed t-test.

For another assay, the system named is IPSC line #7. In words: Expression of development/differentiation factors in IPSC line #7 under nicotinamide. In kind it is cell-based, mouse. On the procedure:
Nicotinamide has also been determined to enhance expression of various factors involved in the development/differentiation of the pancreas. […] A differentially regulated expression of Ins I and II was also apparent: Ins I was expressed at lower concentrations of nicotinamide (1-20 mM), while Ins II was expressed at 20-40 mM nicotinamide. Glucagon expression was visible only at a low dose of nicotinamide (<10 mM), while amylase expression was maintained at all doses (0-40 mM) (data not shown).

The next assay relates to human cell line (#H3). In words: Differentiation of human IPSCs with nicotinamide and ECM (immunohistochemical staining). The format is cell-based. The conditions noted are these: upon treatment with nicotinamide. The source says:
Several lines were derived from human pancreatic ductal preparation provided by DRI (Miami, Fla.). […] Only about 2% of the cells express insulin (FIG. 16M). None of the cells express tyrosine hydroxylase (FIG. 16G).

No end group written: not given here.

As for “glucagon like peptide-1 (HAEGTFTSDVSSYLEGQAAKEFIAWLVKGR; ends and bridges not checked; UniProt P01275 98-127, looked up) [GLP-1, secretagogue stimulating β cells through elevation of cAMP and the protein kinase A pathway]”, the “insulin release from IdIs by secretagogues” value in assay [1] was “induced insulin release”.

Turning to `NC(=O)c1cccnc1` [nicotinamide], in the assay with IPSC line #7 (IPSC line #7), the “nicotinamide concentration at which Ins I was expressed” value was 1 to 20 mM and the “nicotinamide concentration at which Ins II was expressed” value fell in the range of 20 to 40 mM. In addition, in the assay on IPSC line #7 (IPSC line #7, data not shown), the “nicotinamide dose at which glucagon expression was visible” value is under 10 mM and the “nicotinamide doses at which amylase expression was maintained” value was 0 to 40 mM. Moreover, the “expression of development/differentiation factors” value in the assay with IPSC line #7 (at different doses, data not shown) was “enhancement of Isl-1, beta2/neuroD, IPF-1, Nkx 2.2 and 6.1”. Besides, in the assay with human cell line (#H3), the cells expressing insulin entry was “about 2%”; the “cells expressing tyrosine hydroxylase” value is given as “None”; the “expression of pancreatic products” value is “express glucagon (FIG. 16K), amylase (FIG. 16I), cytokeratin 7 (FIG. 16C), and cytokeratin 19 (FIG. 16E)”. For the same compound, the “differentiation of IPCs to IdIs” value in assay [1] (in combination with epidermal growth factor or hepatocyte growth factor, data not shown) is listed as “induced the differentiation of IPCs to IdIs”. For the same compound, the “insulin content of IdIs” value in assay [1] (nicotinamide 1-10 mM for 5 days, then 17.5 mM glucose 3 hours, versus glucose alone) is on record as “increased insulin content”. Further, the “insulin secretion of IdIs” value in assay [1] (nicotinamide 1-10 mM for 5 days, then 17.5 mM glucose 3 hours, versus glucose alone, P<0.05) is reported as “significantly increased levels of insulin”.

Regarding `N=C(N)NCCC[C@H](N)C(=O)O` [arginine], the “insulin release from IdIs by secretagogues” value in assay [1] is given as “induced insulin release”.
